In US9884063B2, “Amido-substituted azole compounds” (Bayer Pharma Aktiengesellschaft, priority 2014, dated 2018):

Molecular target: T1, TNKS1 (Homo sapiens, UniProt O95271)
T1 sequence (O95271 1-1327): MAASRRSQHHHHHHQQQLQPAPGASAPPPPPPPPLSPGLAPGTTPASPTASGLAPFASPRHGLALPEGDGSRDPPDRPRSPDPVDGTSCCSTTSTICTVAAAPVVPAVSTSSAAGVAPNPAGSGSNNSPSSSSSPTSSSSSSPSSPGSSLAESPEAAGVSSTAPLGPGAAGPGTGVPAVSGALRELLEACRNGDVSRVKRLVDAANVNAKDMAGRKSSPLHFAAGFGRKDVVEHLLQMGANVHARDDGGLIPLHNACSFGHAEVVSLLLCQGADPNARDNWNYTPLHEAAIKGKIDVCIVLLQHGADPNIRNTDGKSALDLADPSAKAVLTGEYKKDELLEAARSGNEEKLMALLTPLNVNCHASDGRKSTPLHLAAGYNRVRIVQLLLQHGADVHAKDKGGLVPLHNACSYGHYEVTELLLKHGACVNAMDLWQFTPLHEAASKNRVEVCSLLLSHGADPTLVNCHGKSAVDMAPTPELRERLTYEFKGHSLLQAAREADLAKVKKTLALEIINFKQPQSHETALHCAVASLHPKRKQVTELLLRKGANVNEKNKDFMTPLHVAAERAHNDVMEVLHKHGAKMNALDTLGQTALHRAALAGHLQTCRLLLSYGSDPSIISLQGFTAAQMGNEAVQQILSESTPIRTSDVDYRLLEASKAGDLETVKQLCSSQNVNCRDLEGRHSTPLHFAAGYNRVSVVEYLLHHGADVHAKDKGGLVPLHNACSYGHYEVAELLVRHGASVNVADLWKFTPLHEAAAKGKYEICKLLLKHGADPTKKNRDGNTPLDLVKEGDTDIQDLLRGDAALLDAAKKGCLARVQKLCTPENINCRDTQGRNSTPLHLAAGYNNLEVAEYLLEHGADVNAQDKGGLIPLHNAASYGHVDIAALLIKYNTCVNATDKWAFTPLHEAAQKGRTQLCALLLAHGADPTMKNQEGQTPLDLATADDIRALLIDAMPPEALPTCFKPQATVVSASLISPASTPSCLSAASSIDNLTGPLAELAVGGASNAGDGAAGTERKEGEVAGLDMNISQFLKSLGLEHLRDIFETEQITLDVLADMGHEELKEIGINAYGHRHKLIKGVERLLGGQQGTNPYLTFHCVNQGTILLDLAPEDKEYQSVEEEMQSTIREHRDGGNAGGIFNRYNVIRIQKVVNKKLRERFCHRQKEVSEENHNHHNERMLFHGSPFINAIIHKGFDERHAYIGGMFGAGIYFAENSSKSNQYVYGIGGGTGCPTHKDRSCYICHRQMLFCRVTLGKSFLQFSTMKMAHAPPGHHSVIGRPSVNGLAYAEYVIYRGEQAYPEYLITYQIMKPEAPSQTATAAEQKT
Assay: Modified TNKS1 Assay 2 (auto-parsylation, [3H]-NAD+ SPA)
Format: biochemical
Settings: 6 nM TNKS1, 96 well
Experimental: The potency of selected compounds according to the invention was assessed applying an modified in vitro inhibition assay. Here, the TNKS1 catalyzed NAD^+-dependent ribosylation of the enzyme itself (auto-parsylation) was detected using [^3H]-NAD^+ as substrate and applying the scintillation proximity assay (SPA) method to detect tritium-labeled, parsylated TNKS1. The intensity of the readout signal is proportional to the incorporated [^3H]-NAD^+. Inhibition of TNKS1 leads to a decreased incorporation of [^3H]-NAD^+ and consequently to a lower readout signal intensity. The concentration of a test compound which inhibits the enzyme activity by 50% (corresponds to half of the normed readout signal intensity) is reported as IC50.
The assay was conducted in a 96 well MTP format with the identical TNKS1 enzyme sample and NAD^+ sample as in the histone ribosylation assay with the following modifications: TNKS1 enzyme sample was diluted with a modified assay buffer (50 mM MES pH 7.0, 1 mM DTT, 0.01% Triton X-100) to a final concentration of 6 nM TNKS1 and 10×NAD^+ solution was diluted with the modified assay buffer (s. above) to a final 0.445×NAD^+ solution doped with 100 Bq/ul [^3H]-NAD^+[Catalog #NET443H050UC, Perkin Elmer, Waltham, Mass., USA]. Substrate solution (10 ul) was incubated with different test compound concentrations (2.5 ul in 10% DMSO in modified assay buffer) or control (2.5 ul 10% DMSO in modified assay buffer only) and enzyme (10 ul) over night at room temperature. Incorporated tritium was measured after addition of 50 ul SPA beads (1 mg/ml) [Catalog #RPNQ0095 20 mg/ml, Perkin Elmer, Waltham, Mass., USA; diluted 1:10 with Dulbecco's phosphate buffered saline, PBS Catalog #D8537, Sigma-Aldrich, Steinheim, Germany] and detection of the photon emission with a beta count plate reader [Wallac MicroBeta®, Perkin Elmer, Waltham, Mass., USA].

SMILES | IC50 [nM]
CC(C)CNC(=O)c1[nH]cnc1C(=O)Nc1ccc(NC(=O)c2ccc(F)cc2Cl)cc1 [Example 147, N^4-{4-[(2-chloro-4-fluorobenzoyl)amino]phenyl}-N^5-isobutyl-1H-imidazole-4,5-dicarboxamide] | 110
CC(C)(C)CNC(=O)c1[nH]cnc1C(=O)Nc1ccc(NC(=O)c2ccccc2Cl)cc1 [Example 148, N^4-{4-[(2-chlorobenzoyl)amino]phenyl}-N^5-(2,2-dimethylpropyl)-1H-imidazole-4,5-dicarboxamide] | 1300
O=C(Nc1ccc(NC(=O)c2nc[nH]c2C(=O)NC(CO)CO)cc1)c1ccccc1Cl [Example 157, N^4-{4-[(2-chlorobenzoyl)amino]phenyl}-N^5-(1,3-dihydroxypropan-2-yl)-1H-imidazole-4,5-dicarboxamide] | 1200
O=C(Nc1ccc(NC(=O)c2nc[nH]c2C(=O)NCCF)cc1)c1ccccc1Cl [Example 166, N^4-{4-[(2-chlorobenzoyl)amino]phenyl}-N^5-(2-fluoroethyl)-1H-imidazole-4,5-dicarboxamide] | 240
CC1CCCCN1CCNC(=O)c1[nH]cnc1C(=O)Nc1ccc(NC(=O)c2ccc(F)cc2)cc1 (centres unmarked) [Example 169, N^4-{4-[(4-fluorobenzoyl)amino]phenyl}-N^5-[2-(2-methylpiperidin-1-yl)ethyl]-1H-imidazole-4,5-dicarboxamide] | 90
CC(C)(CN1CCCCC1)NC(=O)c1[nH]cnc1C(=O)Nc1ccc(NC(=O)c2ccccc2Cl)cc1 [Example 171, N^4-{4-[(2-chlorobenzoyl)amino]phenyl}-N^5-[2-methyl-1-(piperidin-1-yl)propan-2-yl]-1H-imidazole-4,5-dicarboxamide] | 200
CC(C)(CN1CCOCC1)NC(=O)c1[nH]cnc1C(=O)Nc1ccc(NC(=O)c2ccc(F)cc2)cc1 [Example 180, N^4-{4-[(4-fluorobenzoyl)amino]phenyl}-N^5-[2-methyl-1-(morpholin-4-yl)propan-2-yl]-1H-imidazole-4,5-dicarboxamide] | 4000
O=C(Nc1ccc(NC(=O)c2nc[nH]c2C(=O)NCCCCN2CCCCC2)cc1)c1ccccc1Cl [Example 189, N^4-{4-[(2-chlorobenzoyl)amino]phenyl}-N^5-[4-(piperidin-1-yl)butyl]-1H-imidazole-4,5-dicarboxamide] | 220
O=C(Nc1ccc(NC(=O)c2nc[nH]c2C(=O)NCCCN2CCOCC2)cc1)c1ccccc1Cl [Example 200, N^4-{4-[(2-chlorobenzoyl)amino]phenyl}-N^5-[3-(morpholin-4-yl)propyl]-1H-imidazole-4,5-dicarboxamide] | 350
O=C(Nc1ccc(NC(=O)c2nc[nH]c2C(=O)NCCCN2CCOCC2)cc1)c1ccc(F)cc1 [Example 206, N^4-{4-[(4-fluorobenzoyl)amino]phenyl}-N^5-[3-(morpholin-4-yl)propyl]-1H-imidazole-4,5-dicarboxamide] | 4100
CC(C)(CN1CCOCC1)NC(=O)c1[nH]cnc1C(=O)Nc1ccc(NC(=O)c2ccc(F)cc2Cl)cc1 [Example 207, N^4-{4-[(2-chloro-4-fluorobenzoyl)amino]phenyl}-N^5-[2-methyl-1-(morpholin-4-yl)propan-2-yl]-1H-imidazole-4,5-dicarboxamide] | 110
CC(C)(CNC(=O)c1[nH]cnc1C(=O)Nc1ccc(NC(=O)c2ccc(F)cc2)cc1)N1CCCCC1 [Example 209, N^4-{4-[(4-fluorobenzoyl)amino]phenyl}-N^5-[2-methyl-2-(piperidin-1-yl)propyl]-1H-imidazole-4,5-dicarboxamide] | 400

Stronger by IC50, values ahead:

IC50 [nM] | SMILES
60 | CC1CCN(CC(C)(C)NC(=O)c2[nH]cnc2C(=O)Nc2ccc(NC(=O)c3ccc(F)cc3Cl)cc2)CC1 [Example 155, N^4-{4-[(2-chloro-4-fluorobenzoyl)amino]phenyl}-N^5-[2-methyl-1-(4-methylpiperidin-1-yl)propan-2-yl]-1H-imidazole-4,5-dicarboxamide]
80 | CN1CCN(CCNC(=O)c2[nH]cnc2C(=O)Nc2ccc(NC(=O)c3ccccc3Cl)cc2)CC1 [Example 160, N^4-{4-[(2-chlorobenzoyl)amino]phenyl}-N^5-[2-(4-methylpiperazin-1-yl)ethyl]-1H-imidazole-4,5-dicarboxamide]
40 | CC1CCN(CCNC(=O)c2[nH]cnc2C(=O)Nc2ccc(NC(=O)c3ccc(F)cc3)cc2)CC1 [Example 164, N^4-{4-[(4-fluorobenzoyl)amino]phenyl}-N^5-[2-(4-methylpiperidin-1-yl)ethyl]-1H-imidazole-4,5-dicarboxamide]
30 | CC(C)(CNC(=O)c1[nH]cnc1C(=O)Nc1ccc(NC(=O)c2ccccc2Cl)cc1)N1CCCCC1 [Example 165, N^4-{4-[(2-chlorobenzoyl)amino]phenyl}-N^5-[2-methyl-2-(piperidin-1-yl)propyl]-1H-imidazole-4,5-dicarboxamide]
30 | O=C(Nc1ccc(NC(=O)c2nc[nH]c2C(=O)NCCF)cc1)c1ccc(F)cc1Cl [Example 173, N^4-{4-[(2-chloro-4-fluorobenzoyl)amino]phenyl}-N^5-(2-fluoroethyl)-1H-imidazole-4,5-dicarboxamide]
50 | O=C(Nc1ccc(NC(=O)c2nc[nH]c2C(=O)NCCN2CCCC2)cc1)c1ccc(F)cc1 [Example 176, N^4-{4-[(4-fluorobenzoyl)amino]phenyl}-N^5-[2-(pyrrolidin-1-yl)ethyl]-1H-imidazole-4,5-dicarboxamide]
10 | CC(CNC(=O)c1[nH]cnc1C(=O)Nc1ccc(NC(=O)c2ccccc2Cl)cc1)N1CCCCC1 (centres unmarked) [Example 182, N^4-{4-[(2-chlorobenzoyl)amino]phenyl}-N^5-[2-(piperidin-1-yl)propyl]-1H-imidazole-4,5-dicarboxamide]
30 | CC(C)(CN1CCCCC1)NC(=O)c1[nH]cnc1C(=O)Nc1ccc(NC(=O)c2ccc(F)cc2Cl)cc1 [Example 184, N^4-{4-[(2-chloro-4-fluorobenzoyl)amino]phenyl}-N^5-[2-methyl-1-(piperidin-1-yl)propan-2-yl]-1H-imidazole-4,5-dicarboxamide]
50 | CN1CCN(C(C)(C)CNC(=O)c2[nH]cnc2C(=O)Nc2ccc(NC(=O)c3ccc(F)cc3Cl)cc2)CC1 [Example 187, N^4-{4-[(2-chloro-4-fluorobenzoyl)amino]phenyl}-N^5-[2-methyl-2-(4-methylpiperazin-1-yl)propyl]-1H-imidazole-4,5-dicarboxamide]
60 | O=C(Nc1ccc(NC(=O)c2nc[nH]c2C(=O)NCCN2CCC2)cc1)c1ccc(F)cc1 [Example 199, N^5-[2-(azetidin-1-yl)ethyl]-N^4-{4-[(4-fluorobenzoyl)amino]phenyl}-1H-imidazole-4,5-dicarboxamide]
3 | CC1CCCN(CCNC(=O)c2[nH]cnc2C(=O)Nc2ccc(NC(=O)c3ccc(F)cc3Cl)cc2)C1 (centres unmarked) [Example 208, N^4-{4-[(2-chloro-4-fluorobenzoyl)amino]phenyl}-N^5-[2-(3-methylpiperidin-1-yl)ethyl]-1H-imidazole-4,5-dicarboxamide]
